Patent US12227509B2, “Dihydropyrazolopyrazinone derivative having MGAT2 inhibitory activity” (Shionogi & Co., Ltd., priority 2019, dated 2025)
In brackets after ≈: the same amount, converted by molar mass.

Assays:
Solution stability test = assay type: physicochemical; settings: 18 hr
Method: The compound of the present invention (0.4 mg) was weighed into a 4 mL screw vial, and 2 mL of various media pH=1 (0.1 N HClaq.+30% MeCN), pH=7 (pH 7 phosphate Buffer (100 mM+30% MeCN) or pH=9 (pH 9 carbonate Buffer (100 mM+30% MeCN) was added, respectively. Complete dissolution was confirmed. If not dissolved, filtration was performed with a 0.45 μm filter. The solution or filtrate was placed in an HPLC vial. HPLC sample cooler was set at 40° C., and sequence was set so that sampling was performed by HPLC at 0, 3, 6, 9, 12, 15, and 18 hours. Stability over time was evaluated by setting the area value of 0 hr product to 100%.

recombinant human MGAT2 = recombinant human MGAT2 (Homo sapiens (Human), UniProt Q3SYC2); assay: Measurement of human MGAT2 inhibitory activity; assay type: biochemical; settings: concentration exhibiting 50% enzyme inhibition; recombinant human MGAT2, 2-Oleoylglycerol/Oleoyl-CoA
Chain of recombinant human MGAT2 (Q3SYC2 whole entry): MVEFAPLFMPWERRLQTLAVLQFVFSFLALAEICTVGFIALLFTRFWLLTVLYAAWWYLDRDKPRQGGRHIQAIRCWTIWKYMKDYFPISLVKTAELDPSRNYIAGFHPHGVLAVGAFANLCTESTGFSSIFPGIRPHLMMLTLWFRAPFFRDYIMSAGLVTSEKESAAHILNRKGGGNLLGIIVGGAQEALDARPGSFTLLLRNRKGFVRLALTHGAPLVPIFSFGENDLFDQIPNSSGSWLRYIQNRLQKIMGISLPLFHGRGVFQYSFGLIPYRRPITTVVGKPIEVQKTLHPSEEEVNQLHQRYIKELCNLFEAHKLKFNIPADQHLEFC
Method in brief: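 Membrane fraction of baculovirus-infected Sf-9 cells expressing N-terminally Flag-tagged full-length human MGAT2, in 100 mmol/L phosphate pH 7.4 with 2 mmol/L DTT. The substrate solution held 30 μmol/L 2-oleoylglycerol and 10 μmol/L oleoyl-CoA. After 1 h at room temperature, diolein/diolein-d5 ratio was read by ESI Q-TOF MS and % inhibition derived against enzyme and no-enzyme controls.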

CYP1A2 = CYP1A2 (Homo sapiens (Human), UniProt P05177); assay: CYP inhibition test, CYP1A2; assay type: in vitro ADME; settings: pooled human liver microsomes; 7-ethoxyresorufin O-deethylation; given as 'five kinds'
Chain of CYP1A2 (P05177 whole entry): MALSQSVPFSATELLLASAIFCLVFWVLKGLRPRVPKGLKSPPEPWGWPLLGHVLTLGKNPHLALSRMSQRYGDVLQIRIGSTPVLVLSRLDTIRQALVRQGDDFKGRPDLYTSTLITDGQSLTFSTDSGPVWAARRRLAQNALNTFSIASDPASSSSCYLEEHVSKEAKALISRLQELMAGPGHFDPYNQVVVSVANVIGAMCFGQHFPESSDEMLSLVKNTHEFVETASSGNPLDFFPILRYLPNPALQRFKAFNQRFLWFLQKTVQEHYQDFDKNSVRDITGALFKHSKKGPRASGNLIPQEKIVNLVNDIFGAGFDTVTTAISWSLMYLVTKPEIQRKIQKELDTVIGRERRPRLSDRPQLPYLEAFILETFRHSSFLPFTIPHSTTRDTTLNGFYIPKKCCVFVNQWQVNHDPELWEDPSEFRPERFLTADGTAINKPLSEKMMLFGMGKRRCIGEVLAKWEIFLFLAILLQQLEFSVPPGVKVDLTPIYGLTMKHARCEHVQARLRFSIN
Description: (§1) Using commercially available pooled human hepatic microsome, and employing, as markers, 7-ethoxyresorufin O-deethylation (CYP1A2), tolbutamide methyl-hydroxylation (CYP2C9), mephenytoin 4'-hydroxylation (CYP2C19), dextromethorphan 0-demethylation (CYP2D6), and terfenadine hydroxylation (CYP3A4) as typical substrate metabolism reactions of human main five CYP enzyme forms (CYP1A2, 2C9, 2C19, 2D6, 3A4), an inhibitory degree of each metabolite production amount by the compound of the present invention was assessed. The reaction conditions are as follows: substrate, 0.5 μmol/L ethoxyresorufin (CYP1A2), 100 μmol/L tolbutamide (CYP2C9), 50 μmol/L S-mephenitoin (CYP2C19), 5 μmol/L dextromethorphan (CYP2D6), 1 μmol/L terfenedine (CYP3A4); reaction time, 15 minutes; reaction temperature, 37° C.; enzyme, pooled human liver microsomes 0.2 mg protein/mL; concentrations of the compound of the present invention, 1, 5, 10, 20 μmol/L (four points). As a reaction solution, each five kinds of substrates, human liver microsomes, or compound of the present invention in 50 mmol/L Hepes buffer were added to a 96-well plate at the composition as described above, and NADPH, as a cofactor was added to initiate metabolism reactions. After the incubation at 37° C. for 15 minutes, a methanol/acetonitrile=1/[…]) solution was added to stop the reaction. After the centrifugation at 3000 rpm for 15 minutes, resorufin (CYP1A2 metabolite) in the supernatant was quantified by a fluorescent multilabel counter or LC/MS/MS, and tolbutamide hydroxide (CYP2C9 metabolite), mephenytoin 4' hydroxide (CYP2C19 metabolite), dextrorphan (CYP2D6 metabolite), and terfenadine alcohol (CYP3A4 metabolite) were quantified by LC/MS/MS. Addition of only DMSO being a solvent dissolving a drug to a reaction system was adopted as a control (100%). Remaining activity (%) was calculated. IC50 was calculated by reverse presumption by a logistic model using the concentration and an inhibition rate.

CYP2D6 = CYP2D6 (Homo sapiens (Human), UniProt P10635); assay: CYP inhibition test, CYP2D6; assay type: in vitro ADME; settings: pooled human liver microsomes; dextromethorphan O-demethylation; given as 'five kinds'
Chain of CYP2D6 (P10635 whole entry): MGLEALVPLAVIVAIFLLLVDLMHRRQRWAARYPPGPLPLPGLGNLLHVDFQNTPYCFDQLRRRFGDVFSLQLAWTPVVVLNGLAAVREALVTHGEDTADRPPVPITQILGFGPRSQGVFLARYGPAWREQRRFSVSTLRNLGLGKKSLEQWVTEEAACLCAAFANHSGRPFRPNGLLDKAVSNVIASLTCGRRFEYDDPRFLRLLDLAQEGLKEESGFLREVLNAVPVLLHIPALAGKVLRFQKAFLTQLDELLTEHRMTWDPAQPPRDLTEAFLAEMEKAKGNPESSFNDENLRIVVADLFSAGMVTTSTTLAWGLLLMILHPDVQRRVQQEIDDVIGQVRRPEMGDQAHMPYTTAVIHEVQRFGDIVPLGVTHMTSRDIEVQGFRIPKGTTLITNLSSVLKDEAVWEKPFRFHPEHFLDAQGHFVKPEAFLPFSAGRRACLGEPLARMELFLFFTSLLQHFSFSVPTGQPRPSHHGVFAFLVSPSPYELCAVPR
Description: as §1

CYP2C9 = CYP2C9 (Homo sapiens (Human), UniProt P11712); assay: CYP inhibition test, CYP2C9; assay type: in vitro ADME; settings: pooled human liver microsomes; tolbutamide methyl-hydroxylation; given as 'five kinds'
Chain of CYP2C9 (P11712 whole entry): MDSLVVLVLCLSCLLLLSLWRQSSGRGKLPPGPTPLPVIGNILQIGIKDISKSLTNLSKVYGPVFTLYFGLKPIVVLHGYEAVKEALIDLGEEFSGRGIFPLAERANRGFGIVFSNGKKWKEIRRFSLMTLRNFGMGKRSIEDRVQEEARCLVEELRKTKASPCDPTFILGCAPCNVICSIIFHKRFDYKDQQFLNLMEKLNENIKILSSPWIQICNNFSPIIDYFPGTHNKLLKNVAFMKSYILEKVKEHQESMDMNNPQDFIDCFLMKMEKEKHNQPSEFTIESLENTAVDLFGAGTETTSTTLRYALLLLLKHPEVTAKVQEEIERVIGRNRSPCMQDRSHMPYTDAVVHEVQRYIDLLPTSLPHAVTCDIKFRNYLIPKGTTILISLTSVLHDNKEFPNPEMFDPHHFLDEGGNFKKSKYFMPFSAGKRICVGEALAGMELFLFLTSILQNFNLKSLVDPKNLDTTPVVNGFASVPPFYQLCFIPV
Description: as §1

CYP3A4 = CYP3A4 (Homo sapiens (Human), UniProt P08684); assay: CYP inhibition test, CYP3A4; assay type: in vitro ADME; settings: pooled human liver microsomes; terfenadine hydroxylation; given as 'five kinds'
Chain of CYP3A4 (P08684 whole entry): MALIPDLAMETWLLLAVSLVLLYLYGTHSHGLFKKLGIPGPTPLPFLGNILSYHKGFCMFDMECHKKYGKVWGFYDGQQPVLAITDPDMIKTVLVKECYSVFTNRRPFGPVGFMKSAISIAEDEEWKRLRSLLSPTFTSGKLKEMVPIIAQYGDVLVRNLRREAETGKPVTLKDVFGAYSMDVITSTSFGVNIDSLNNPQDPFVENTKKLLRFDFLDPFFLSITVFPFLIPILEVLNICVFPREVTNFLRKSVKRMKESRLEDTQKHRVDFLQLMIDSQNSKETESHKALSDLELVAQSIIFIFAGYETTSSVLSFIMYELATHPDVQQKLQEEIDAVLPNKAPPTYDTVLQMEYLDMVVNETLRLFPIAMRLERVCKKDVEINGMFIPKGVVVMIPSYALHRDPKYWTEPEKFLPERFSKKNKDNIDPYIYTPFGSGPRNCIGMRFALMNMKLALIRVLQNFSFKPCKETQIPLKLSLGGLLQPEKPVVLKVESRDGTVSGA
Description: as §1

CYP2C19 = CYP2C19 (Homo sapiens (Human), UniProt P33261); assay: CYP inhibition test, CYP2C19; assay type: in vitro ADME; settings: pooled human liver microsomes; mephenytoin 4′-hydroxylation; given as 'five kinds'
Chain of CYP2C19 (P33261 whole entry): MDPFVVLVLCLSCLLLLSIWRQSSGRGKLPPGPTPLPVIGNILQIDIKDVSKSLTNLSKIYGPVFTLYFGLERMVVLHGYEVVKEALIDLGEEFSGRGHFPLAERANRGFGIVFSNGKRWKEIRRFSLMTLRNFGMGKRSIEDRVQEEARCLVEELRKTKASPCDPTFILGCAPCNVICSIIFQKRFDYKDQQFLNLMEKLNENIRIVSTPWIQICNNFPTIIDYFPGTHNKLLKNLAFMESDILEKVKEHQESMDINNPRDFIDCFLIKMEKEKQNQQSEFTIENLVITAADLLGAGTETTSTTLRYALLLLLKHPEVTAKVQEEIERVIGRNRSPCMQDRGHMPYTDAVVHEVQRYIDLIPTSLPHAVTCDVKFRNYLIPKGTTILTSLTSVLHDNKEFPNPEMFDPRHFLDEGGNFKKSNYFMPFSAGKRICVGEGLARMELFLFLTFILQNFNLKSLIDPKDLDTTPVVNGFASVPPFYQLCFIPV
Description: as §1

[1] = Metabolism stability test (human liver microsomes); assay type: in vitro ADME; settings: compound concentration 0.5 μmol/L, 37° C., 30 minutes, NADPH
Method: Using commercially available pooled human hepatic microsomes, the compound of the present invention was reacted for a constant time, a remaining rate was calculated by comparing a reacted sample and an unreacted sample, thereby, a degree of metabolism of the compound of the present invention in liver was assessed.
A reaction was performed (oxidative reaction) at 37° C. for 0 minute or 30 minutes in the presence of 1 mmol/L NADPH in 0.2 mL of a buffer (50 mmol/L Tris-HCl pH 7.4, 150 mmol/L potassium chloride, 10 mmol/L magnesium chloride) containing 0.5 mg protein/mL of human liver microsomes. After the reaction, 50 μL of the reaction solution was added to 100 μL of a methanol/acetonitrile=1/1 (v/v) solution, mixed and centrifuged at 3000 rpm for 15 minutes. The compound of the present invention in the supernatant was quantified by LC/MS/MS, and a remaining amount of the compound of the present invention after the reaction was calculated, letting a compound amount at 0 minute reaction time to be 100%.

[2] = Solubility test (1% DMSO addition, pH 6.8 artificial intestinal juice); assay type: physicochemical; settings: kinetic from dmso stock, 16 hours at 25° C.
Method: The solubility of the compound of the present invention was determined under 1% DMSO addition conditions. 10 mmol/L solution of the compound was prepared with DMSO, and 6 μL of the solution of the compound of the present invention was added to 594 μL of pH 6.8 artificial intestinal juice (118 mL of 0.2 mol/L NaOH test solution and water were added to 250 mL of 0.2 mol/L potassium dihydrogen phosphate test solution to reach 1000 mL). The mixture was left standing for 16 hours at 25° C., and the mixture was vacuum-filtered. The filtrate was two-fold diluted with methanol/water=1/1 (V/V), and the compound concentration in the filtrate was measured with HPLC or LC/MS/MS by the absolute calibration method. The dilution concentration and the dilution solvent were changed as necessary.

hERG (IKr) = hERG (IKr) (Homo sapiens (Human), UniProt Q12809); assay: hERG test; assay type: cell-based; settings: CHO cells expressing hERG channel, pH 7.4, 10 μmol/L of test compound, read-out: % inhibition of hERG tail peak current (IKr)
Chain of hERG (IKr) (Q12809 whole entry): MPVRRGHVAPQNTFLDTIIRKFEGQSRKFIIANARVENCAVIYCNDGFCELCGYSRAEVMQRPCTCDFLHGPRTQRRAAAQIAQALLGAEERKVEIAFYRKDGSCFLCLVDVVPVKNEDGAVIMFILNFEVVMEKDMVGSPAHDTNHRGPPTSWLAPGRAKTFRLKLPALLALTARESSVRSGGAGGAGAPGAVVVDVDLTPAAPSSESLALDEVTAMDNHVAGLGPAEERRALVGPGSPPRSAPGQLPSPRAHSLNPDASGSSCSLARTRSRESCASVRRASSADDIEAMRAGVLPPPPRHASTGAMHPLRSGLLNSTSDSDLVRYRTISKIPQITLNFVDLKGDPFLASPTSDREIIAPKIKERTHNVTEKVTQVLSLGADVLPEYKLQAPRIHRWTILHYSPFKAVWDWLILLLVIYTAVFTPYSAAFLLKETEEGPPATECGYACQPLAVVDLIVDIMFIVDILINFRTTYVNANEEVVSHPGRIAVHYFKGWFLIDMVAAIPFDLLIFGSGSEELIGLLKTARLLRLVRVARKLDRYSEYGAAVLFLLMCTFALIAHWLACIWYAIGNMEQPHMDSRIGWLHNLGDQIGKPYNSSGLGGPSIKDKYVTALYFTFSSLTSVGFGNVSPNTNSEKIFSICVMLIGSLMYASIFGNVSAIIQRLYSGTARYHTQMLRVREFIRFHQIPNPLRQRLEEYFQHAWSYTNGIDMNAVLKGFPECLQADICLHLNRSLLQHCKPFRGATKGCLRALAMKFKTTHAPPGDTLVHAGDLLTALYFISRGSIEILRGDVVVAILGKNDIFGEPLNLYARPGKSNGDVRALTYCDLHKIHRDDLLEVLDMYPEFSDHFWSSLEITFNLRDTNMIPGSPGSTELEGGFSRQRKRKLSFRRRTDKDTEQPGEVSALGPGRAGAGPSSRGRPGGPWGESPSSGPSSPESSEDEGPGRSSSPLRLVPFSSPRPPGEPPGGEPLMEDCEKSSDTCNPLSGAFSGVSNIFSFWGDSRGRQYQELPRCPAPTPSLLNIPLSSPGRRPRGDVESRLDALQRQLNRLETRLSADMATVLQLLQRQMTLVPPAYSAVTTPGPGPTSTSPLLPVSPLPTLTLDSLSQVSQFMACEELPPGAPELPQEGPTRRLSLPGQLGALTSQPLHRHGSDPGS
Description: For the purpose of assessing risk of an electrocardiogram QT interval prolongation of the compound of the present invention, effects of the compound of the present invention on delayed rectifier K^+ current (IKr), which plays an important role in the ventricular repolarization process, was studied using CHO cells expressing human ether-a-go-go related gene (hERG) channel.
After a cell was retained at a membrane potential of −80 mV by whole cell patch clamp method using an automated patch clamp system (QPatch; Sophion BIoscience A/S), IKr induced by application of a leak potential of −50 mV followed by depolarization pulse stimulation at +20 mV for 2 seconds and, further, repolarization pulse stimulation at −50 mV for 2 seconds, was recorded. […] From the recording IKr, an absolute value of the tail peak current was measured based on the current value at the resting membrane potential using analysis software (Falster Patch; Sophion Bioscience A/S). Further, the % inhibition of tail peak current for the compound of the present invention relative to the tail peak current after application of the vehicle is calculated to assess influence of the compound of the present invention on IKr.

[3] = BA test (oral absorption); assay type: in vivo; settings: plasma; mice or SD rats; from AUCs of oral and intravenous administration
Method: Materials and methods for experiments to evaluate oral absorption
(1) Animals: the mice or SD rats were used.
(2) Breeding conditions: the mice or SD rats were allowed to freely take solid food and sterilized tap water.
(3) Setting of dosage and grouping: Oral administration and intravenous administration were performed with a predetermined dosage. Grouping was set as below. (dosage changed per compound)
Oral administration: 1 to 30 mg/kg (n=2 to 3)
Intravenous administration: 0.5 to 10 mg/kg (n=2 to 3)
(4) Preparation of administration solution: Oral administration was performed in the form of a suspension or a solution. Intravenous administration was performed after solubilization.
(5) Routes of administration: Oral administration was performed mandatory into the stomach by oral sonde. Intravenous administration was performed from caudal vein or femoral vein by syringes with needle.
(6) Evaluation items: blood was collected over time, and the plasma concentration of the compound of the present invention was measured by LC/MS/MS.
(7) Statistical analysis: regarding the transition of the plasma concentration of the compound of the present invention, the area under the plasma concentration-time curve (AUC) was calculated by non-linear least squares program WinNonlin (registered trademark), and the bioavailability (BA) of the compound of the present invention was calculated from the AUCs of the oral administration group and intravenous administration group.

| Residual rate (Solution stability test; pH=1, 40° C.) | Residual rate (Solution stability test; pH=7, 40° C.) | Residual rate (Solution stability test; pH=9, 40° C.) | IC50 (recombinant human MGAT2) | IC50 (CYP1A2) | IC50 (CYP2D6) | IC50 (CYP2C9) | IC50 (CYP3A4) | IC50 (CYP2C19) | Remaining rate [1] | solubility at 16 h [2] | bioavailability [3] | SMILES | inhibition at 10 min, 10 μmol/L (hERG (IKr)) |
| --- | --- | --- | --- | --- | --- | --- | --- | --- | --- | --- | --- | --- | --- |
| 100.2% | 100.9% | 100.2% | 0.00199 µM |  |  |  |  |  |  |  |  | CS(=O)(=O)CC(=O)Nc1c(-c2ccc(C#N)cn2)nn2c1C(=O)N[C@@]1(CCc3cc(OCC(F)(F)F)ccc31)C2 [Compound I-3] |  |
|  |  |  |  | > 20 µM | > 20 µM | > 20 µM | > 20 µM | > 20 µM | 99.4% | 48.9 µM (≈ 25.8 µg/mL) | 67% | CS(=O)(=O)CC(=O)Nc1c(-c2ccc(C3CC3)cn2)nn2c1C(=O)N[C@@]1(CCc3cc(F)cc(F)c31)C2 [Compound I-141] | 14% |
